Measurements taken from PubChem BioAssay (NCI).
Several values for one entry are separate records, joined by “and”; a condition that tells them apart may be missing. Identical values can stand only once.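 Results reflect a 48-hour exposure of cells in 96-well plates to compound at five concentrations. At the GI50, growth is halved. TGI is the concentration that stops growth completely.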

What was measured:
Assay in all cases: NCI anticancer screen, dose series, 48 h
786-0 renal = system: 786-0 renal
CAKI-1 renal = system: CAKI-1 renal
HCC-2998 colon = system: HCC-2998 colon
HCT-15 colon = system: HCT-15 colon
LOX IMVI melanoma = system: LOX IMVI melanoma
RPMI-8226 leukemia = system: RPMI-8226 leukemia
SNB-19 CNS = system: SNB-19 CNS
SR leukemia = system: SR leukemia
UACC-257 melanoma = system: UACC-257 melanoma
UO-31 renal = system: UO-31 renal

Structure (SMILES) | GI50 (786-0 renal) | TGI (786-0 renal) | GI50 (CAKI-1 renal) | TGI (CAKI-1 renal) | GI50 (HCC-2998 colon) | TGI (HCC-2998 colon) | GI50 (HCT-15 colon) | TGI (HCT-15 colon) | GI50 (LOX IMVI melanoma) | TGI (LOX IMVI melanoma) | GI50 (RPMI-8226 leukemia) | TGI (RPMI-8226 leukemia) | GI50 (SNB-19 CNS) | TGI (SNB-19 CNS) | GI50 (SR leukemia) | TGI (SR leukemia) [µM] | GI50 (UACC-257 melanoma) | TGI (UACC-257 melanoma) | GI50 (UO-31 renal) | TGI (UO-31 renal)
CC(NCCC(c1ccccc1)c1ccccc1)c1ccccc1 (stereo not drawn) | 1.81 µM | 3.67 µM | 2.73 µM | 9.52 µM | 1.6 µM | 3.07 µM | 2.57 µM | 7.83 µM | 1.59 µM | 2.93 µM | 1.92 µM | 4.83 µM | 1.56 µM | 3.44 µM | 1.92 µM | 5.26 | 1.65 µM | 4.02 µM | 2.19 µM | 12.1 µM
Cc1c(N(C)C)ccc2c(=O)c3cccc(CC(=O)O)c3oc12 | – | > 100 µM | – | > 100 µM | – | > 100 µM | – | > 100 µM | – | > 100 µM | – | > 100 µM | – | > 69 µM | – | > 100 | – | > 100 µM | – | > 100 µM
O=C(c1ccco1)c1c(C(F)(F)F)nc2ccc(Cl)cc2[n+]1[O-] | > 100 µM | > 100 µM | 26.6 µM | 85.8 µM | 21.8 µM | 46.1 µM | 61 µM | > 100 µM | > 100 µM | > 100 µM | > 100 µM | > 100 µM | > 100 µM | > 100 µM | 86.6 µM | > 100 | > 100 µM | > 100 µM | > 100 µM | > 100 µM
CCOC(=O)Nc1cc2c(c(N)n1)N=C(c1ccccc1)CO2 | 1.21 µM | 20.9 µM | 0.102 µM | 7.62 µM | 0.414 µM | 8.96 µM | 0.0894 µM | > 100 µM | 0.368 µM | > 100 µM | 0.126 µM | – | 0.414 µM | 25 µM | 0.035 µM | 10.1 | 17.5 µM | 99.6 µM | 0.459 µM | 6.53 µM
Cc1nc(N)sc1N=Nc1ccccc1Br | – | 69.5 µM | – | 81.8 µM | – | 21.7 µM | – | 69.8 µM | – | > 66.1 µM | – | > 100 µM | – | > 69.7 µM | – | > 100 | – | 55.8 µM | – | 60.5 µM
O=C(NC[C@H](O)CN1CCc2ccccc2C1)c1cc(NC2COC2)ncn1 | 12.6 µM | 41.9 µM | 26.4 µM | > 100 µM | 15.4 µM | 29.8 µM | 22.7 µM | > 100 µM | 7.21 µM | 23.3 µM | 4.22 µM | 43.5 µM | 11.9 µM | 98 µM | 9.29 µM | 50.9 | 19.8 µM | 90.4 µM | 11.8 µM | 97.1 µM
C/C(CC(=O)Nc1ccc(C)c(C)c1)=N\N(c1ccccc1)c1ccccc1 | – | > 100 µM | – | > 100 µM | – | > 100 µM | – | > 100 µM | – | > 100 µM | – | > 100 µM | – | > 100 µM | – | 51.2 | – | > 100 µM | – | > 100 µM
NC(N)=N/N=C/c1c(Cl)cccc1Cl | 18 µM | 43.7 µM | 23 µM | 95.3 µM | 14.8 µM | 28.6 µM | 26.1 µM | > 100 µM | 14.4 µM | 30.1 µM | 40.7 µM | > 100 µM | 37.7 µM | > 100 µM | 22.2 µM | 56.3 | 12.3 µM | 27.3 µM | 16.5 µM | 64.7 µM
O=C(Nc1cc(C(F)(F)F)cc(C(F)(F)F)c1)c1cc(Cl)ccc1O | 0.269 µM and 0.293 µM | 0.881 µM and 1.15 µM | 0.212 µM and 0.18 µM | 0.644 µM and 0.677 µM | 0.307 µM and 0.349 µM | 1.33 µM and 3.63 µM | 0.271 µM and 0.276 µM | 1.62 µM and 1.49 µM | 0.316 µM and 0.366 µM | 1.51 µM and 2.68 µM | 0.116 µM and 0.155 µM | 0.578 µM and 0.713 µM | 0.291 µM and 0.233 µM | > 10 µM and 12 µM | 0.218 µM and 0.228 µM | – | 0.196 µM and 0.194 µM | 0.75 µM and 1.21 µM | 0.246 µM and 0.224 µM | 0.856 µM and 0.811 µM
CN(C)C1CCN(C(=O)c2ccc(NC(=O)Nc3ccc(-c4nc(N5CCOCC5)c5cccn5n4)cc3)cc2)CC1 | 0.31 µM | 6.36 µM | 3.39 µM | 20.8 µM | 0.043 µM | 5.86 µM | 2.77 µM | > 50.7 µM | 0.0267 µM | 1.19 µM | 0.275 µM | 1.88 µM | 0.0403 µM | 6.22 µM | 0.0562 µM | > 54 | 0.204 µM | 0.729 µM | 1.15 µM | 10.1 µM
COC(=O)C1CCCC2(C1)OCCO2 (stereo not drawn) | – | > 100 µM | – | > 100 µM | – | > 100 µM | – | > 100 µM | – | > 100 µM | – | > 100 µM | – | > 100 µM | – | > 100 | – | > 100 µM | – | > 100 µM
N=c1c2c(-c3ccccc3)c(-c3ccccc3)n(Cc3ccccc3)c2ncn1C1CCC(O)CC1 (stereo not drawn) | 2.12 µM | 17.3 µM | 0.147 µM | 1.89 µM | 1.06 µM | 5.03 µM | 0.27 µM | 14.7 µM | 0.14 µM | 1.69 µM | 0.318 µM | 4.12 µM | 1.21 µM | 17.9 µM | 0.034 µM | 2.2 | 0.469 µM | 1.91 µM | 0.258 µM | 1.65 µM
